According to ChEMBL document CHEMBL4811291, “Discovery of macrocyclic HDACs 1, 2, and 3 selective inhibitors for HIV latency reactivation” (Bioorg Med Chem Lett, 2021):

How the values were obtained:
[1] = test system: Human immunodeficiency virus; assay: Reactivation of HIV latency infected in human 2C4 cells in presence of 0.1 % NHS by luciferase reporter gene assay; assay type: functional, organism-based; conditions: Human immunodeficiency virus 1, 2C4
[2] = test system: Human immunodeficiency virus; assay: Reactivation of HIV latency infected in human 2C4 cells in presence of 5 % NHS by luciferase reporter gene assay; assay type: functional, organism-based; conditions: Human immunodeficiency virus 1, 2C4
[3] = molecular target: Histone deacetylase 1 (Homo sapiens, UniProt Q13547); assay: Inhibition of HDAC1 (unknown origin)
Histone deacetylase 1, sequence (Q13547 whole entry): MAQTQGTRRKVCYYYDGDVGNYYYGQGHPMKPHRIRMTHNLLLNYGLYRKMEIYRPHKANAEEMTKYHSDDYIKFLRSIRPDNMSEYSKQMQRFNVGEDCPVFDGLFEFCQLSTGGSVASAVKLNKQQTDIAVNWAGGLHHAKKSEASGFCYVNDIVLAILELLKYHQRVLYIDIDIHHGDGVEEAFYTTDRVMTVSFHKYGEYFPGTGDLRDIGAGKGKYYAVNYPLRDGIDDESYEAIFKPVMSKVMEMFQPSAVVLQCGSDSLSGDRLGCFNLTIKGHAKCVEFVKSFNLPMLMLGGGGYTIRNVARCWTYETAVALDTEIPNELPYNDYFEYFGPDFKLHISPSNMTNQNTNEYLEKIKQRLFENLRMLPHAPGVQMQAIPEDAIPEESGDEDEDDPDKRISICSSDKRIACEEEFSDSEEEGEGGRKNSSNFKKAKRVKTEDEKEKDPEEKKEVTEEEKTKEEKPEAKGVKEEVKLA

[4] = molecular target: Histone deacetylase 2 (Homo sapiens, UniProt Q92769); assay: Inhibition of HDAC2 (unknown origin)
Histone deacetylase 2, sequence (Q92769 whole entry): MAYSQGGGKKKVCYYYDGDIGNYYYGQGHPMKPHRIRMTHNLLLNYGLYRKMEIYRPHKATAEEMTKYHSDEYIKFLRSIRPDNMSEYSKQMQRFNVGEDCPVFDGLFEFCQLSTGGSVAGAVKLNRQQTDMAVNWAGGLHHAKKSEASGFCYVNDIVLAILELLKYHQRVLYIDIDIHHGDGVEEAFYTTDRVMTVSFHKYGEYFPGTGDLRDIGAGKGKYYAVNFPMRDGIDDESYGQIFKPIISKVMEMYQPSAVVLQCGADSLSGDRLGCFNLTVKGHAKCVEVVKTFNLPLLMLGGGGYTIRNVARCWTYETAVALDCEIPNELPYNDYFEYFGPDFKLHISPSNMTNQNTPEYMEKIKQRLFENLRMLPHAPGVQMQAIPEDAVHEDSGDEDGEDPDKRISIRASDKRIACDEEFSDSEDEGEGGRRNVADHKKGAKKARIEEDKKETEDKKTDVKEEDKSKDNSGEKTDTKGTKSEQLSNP

[5] = molecular target: Histone deacetylase 3 (Homo sapiens, UniProt O15379); assay: Inhibition of HDAC3 (unknown origin)
Histone deacetylase 3, sequence (O15379 whole entry): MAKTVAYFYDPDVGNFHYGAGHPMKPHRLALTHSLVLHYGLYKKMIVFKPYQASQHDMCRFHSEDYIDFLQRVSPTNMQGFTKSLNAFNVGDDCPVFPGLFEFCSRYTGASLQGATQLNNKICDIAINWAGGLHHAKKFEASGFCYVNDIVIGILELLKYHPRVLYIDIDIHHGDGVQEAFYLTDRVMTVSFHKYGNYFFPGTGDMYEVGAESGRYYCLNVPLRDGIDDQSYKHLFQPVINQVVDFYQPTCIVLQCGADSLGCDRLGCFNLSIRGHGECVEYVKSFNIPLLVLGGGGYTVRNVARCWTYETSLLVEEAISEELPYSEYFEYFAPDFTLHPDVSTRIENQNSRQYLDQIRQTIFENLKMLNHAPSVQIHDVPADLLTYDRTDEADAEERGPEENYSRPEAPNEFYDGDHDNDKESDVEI

[6] = molecular target: T1, Protein deacetylase HDAC6 (Homo sapiens, UniProt Q9UBN7); assay: Inhibition of HDAC6 (unknown origin)
T1 sequence (Q9UBN7 whole entry): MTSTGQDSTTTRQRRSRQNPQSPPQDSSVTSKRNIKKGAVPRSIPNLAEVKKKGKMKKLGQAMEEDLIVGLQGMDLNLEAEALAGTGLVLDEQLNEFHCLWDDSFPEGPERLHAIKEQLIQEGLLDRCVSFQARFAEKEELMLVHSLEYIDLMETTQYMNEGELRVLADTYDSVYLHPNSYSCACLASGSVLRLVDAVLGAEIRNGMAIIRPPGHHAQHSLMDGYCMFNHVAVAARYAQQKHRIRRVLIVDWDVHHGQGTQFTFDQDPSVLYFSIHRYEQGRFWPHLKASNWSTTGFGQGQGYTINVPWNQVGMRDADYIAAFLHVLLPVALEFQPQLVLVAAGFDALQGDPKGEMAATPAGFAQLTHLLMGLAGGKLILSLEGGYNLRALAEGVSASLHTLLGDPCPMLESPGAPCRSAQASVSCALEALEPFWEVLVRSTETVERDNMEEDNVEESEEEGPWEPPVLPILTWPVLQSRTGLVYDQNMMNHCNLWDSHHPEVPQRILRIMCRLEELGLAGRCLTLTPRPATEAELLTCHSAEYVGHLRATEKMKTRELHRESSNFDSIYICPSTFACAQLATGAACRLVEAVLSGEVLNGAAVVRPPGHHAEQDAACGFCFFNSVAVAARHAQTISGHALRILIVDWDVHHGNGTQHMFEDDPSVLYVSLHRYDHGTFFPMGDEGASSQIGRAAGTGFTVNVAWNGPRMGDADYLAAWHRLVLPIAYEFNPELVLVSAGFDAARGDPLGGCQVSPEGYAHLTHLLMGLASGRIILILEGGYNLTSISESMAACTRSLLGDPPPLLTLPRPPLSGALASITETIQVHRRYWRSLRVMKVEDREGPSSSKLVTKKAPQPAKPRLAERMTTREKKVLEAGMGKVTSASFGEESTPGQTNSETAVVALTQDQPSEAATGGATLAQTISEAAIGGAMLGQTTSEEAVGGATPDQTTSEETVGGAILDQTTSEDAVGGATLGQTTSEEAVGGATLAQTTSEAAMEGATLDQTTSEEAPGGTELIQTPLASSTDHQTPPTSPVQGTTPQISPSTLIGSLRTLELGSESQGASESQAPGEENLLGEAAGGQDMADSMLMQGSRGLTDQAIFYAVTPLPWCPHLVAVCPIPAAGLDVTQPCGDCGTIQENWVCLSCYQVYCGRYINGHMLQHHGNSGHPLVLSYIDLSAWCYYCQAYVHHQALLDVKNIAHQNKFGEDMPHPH

[7] = molecular target: T2, Histone deacetylase 8 (Homo sapiens, UniProt Q9BY41); assay: Inhibition of HDAC8 (unknown origin)
T2 sequence (Q9BY41 whole entry): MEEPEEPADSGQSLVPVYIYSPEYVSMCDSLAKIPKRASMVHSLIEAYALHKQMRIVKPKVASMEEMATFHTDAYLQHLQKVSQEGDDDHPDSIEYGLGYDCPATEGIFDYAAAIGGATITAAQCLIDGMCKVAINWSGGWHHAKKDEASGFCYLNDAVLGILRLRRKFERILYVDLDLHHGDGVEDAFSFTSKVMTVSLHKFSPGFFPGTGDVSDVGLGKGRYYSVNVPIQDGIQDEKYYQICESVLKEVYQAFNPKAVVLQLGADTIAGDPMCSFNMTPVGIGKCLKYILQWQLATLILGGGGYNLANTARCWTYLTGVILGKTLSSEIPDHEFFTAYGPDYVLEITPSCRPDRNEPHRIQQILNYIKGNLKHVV

Compound	EC50 [1]	EC50 [2]	IC50 [3]	IC50 [4]	IC50 [5]	IC50 [6]	IC50 [7]
CCC(=O)CCCCC[C@@H]1NC(=O)CN(C)CCCCOCCCCn2ccc3cc(ccc3c2=O)-c2cnc1[nH]2	2500 nM	3510 nM	–	–	–	> 900 nM	> 900 nM
CCC(=O)CCCCC[C@H](NC(=O)[C@H]1CC12CCN(CC)CC2)c1[nH]c2nc1C(=O)NCCC/C=C\c1cccc-2c1	1460 nM	2880 nM	–	–	–	> 900 nM	90 nM
CCC(=O)CCCCC[C@@H]1NC(=O)C2CCN2CCCCCCc2ccccc2-c2cnc1[nH]2 (stereo in doubt; 7)	–	–	2940 nM	5950 nM	1220 nM	9830 nM	–
CCC(=O)CCCCC[C@@H]1NC(=O)[C@H]2CC23CCN(CCCOCCn2ccc4cc(ccc4c2=O)-c2cnc1[nH]2)CC3	> 40000 nM	> 40000 nM	–	–	–	> 900 nM	> 900 nM
CCC(=O)CCCCC[C@@H]1NC(=O)[C@H]2CC23CCN(CCCCN2C4CCC2c2cc(ccc24)-c2cnc1[nH]2)CC3 (some centres not stated)	844 nM	867 nM	–	49 nM	–	> 900 nM	> 900 nM
CCC(=O)CCCCC[C@@H]1NC(=O)C2CCN2CCCCCOc2ccccc2-c2cnc1[nH]2 (stereo in doubt; 4)	3170 nM	5090 nM	216 nM	911 nM	91 nM	5390 nM	21500 nM
CCC(=O)CCCCC[C@@H]1NC(=O)C2CCN2CCCCCCc2ccccc2-c2cnc1[nH]2 (stereo in doubt; 8)	–	–	355 nM	1140 nM	188 nM	17500 nM	–
CCC(=O)CCCCC[C@@H]1NC(=O)C2CCN2CCCCCCOc2ccccc2-c2cnc1[nH]2 (stereo in doubt; 5)	–	–	682 nM	2830 nM	242 nM	–	–
CCC(=O)CCCCC[C@@H]1NC(=O)[C@H]2CC23CCN(C/C=C/CN2C4CCC2c2cc(ccc24)-c2cnc1[nH]2)CC3 (some centres not stated)	73 nM	76 nM	–	0.86 nM	–	> 900 nM	> 900 nM

Other lines, results leading:

EC50 [1]	EC50 [2]	IC50 [3]	IC50 [4]	IC50 [5]	IC50 [6]	IC50 [7]	Compound
294 nM	269 nM	–	–	–	–	–	CCC(=O)CCCCC[C@H](NC(=O)C1CN(C)C1)c1[nH]c(-c2ccccc2)nc1C(N)=O
52 nM	56 nM	< 1.5 nM	< 1.5 nM	< 1.5 nM	–	–	CCC(=O)CCCCC[C@H](NC(=O)[C@H]1CC12CCN(CC)CC2)c1ncc(-c2ccc3c(=O)n(CC)ccc3c2)[nH]1
2470 nM	2360 nM	37 nM	249 nM	12 nM	5750 nM	15000 nM	CCC(=O)CCCCC[C@H](NC(=O)C1CN(C)C1)c1ncc(-c2ccccc2)[nH]1
–	–	–	–	–	680 nM	–	CCC(=O)CCCCC[C@H](NC(=O)C1CN(C)C1)c1ncc(-c2cc3ccccc3nc2OC)[nH]1
193 nM	165 nM	–	–	–	–	–	CCC(=O)CCCCC[C@H](NC(=O)[C@H]1CC12CCN(CC)CC2)c1[nH]c(-c2ccc(F)cc2)nc1C(N)=O
